# From publication PMC7129073 (Clinical Microbiology and Infection, 2015)
# What was measured:
# [1] = system: Streptococcus pyogenes (SPY); test: MIC; type: cell-based; details: 2522 isolates
# H. influenzae = test: Sensitivity of CAP pathogens with/without antibiotic pretreatment; type: cell-based, Haemophilus influenzae
# H.influenzae = test: Broth microdilution; type: cell-based, Haemophilus influenzae; details: for MIC90: Haemophilus influenzae
# ERSP = test: Broth microdilution; type: cell-based, Streptococcus pneumoniae; details: for %Sus: NCCLS breakpoints (Amox/Clav 2/1 mcg/mL); for MIC90: Streptococcus pneumoniae
# P. jirovecii = P. jirovecii colonisation; type: in vivo, human; details: none developed PcP in one year
# Other Haemophilus sp. = test: Sensitivity of CAP pathogens with/without antibiotic pretreatment; type: cell-based; details: after pretreatment, Abs. 11
# E. coli = test: as above; type: cell-based, Escherichia coli
# [2] = system: pathogens in community acquired pneumonia of different severity; test: Sensitivity of CAP pathogens by Fine severity group; type: cell-based
# [3] = system: Other non-fermenting bacteria; test: Sensitivity of CAP pathogens with/without antibiotic pretreatment; type: cell-based
# P. aeruginosa = test: as above; type: cell-based, Pseudomonas aeruginosa; details: Abs. 3
# S. pyogenes = test: as above; type: cell-based, Streptococcus pyogenes; details: Abs. 4
# [4] = system: Total pathogens in community acquired pneumonia; test: as above; type: cell-based; details: after pretreatment, Abs. 48
# N.gonorrhoeae = test: microbe, parasite or virus in culture; type: cell-based; details: Neisseria gonorrhoeae
# [5] = system: Moraxella catarrhalis (MC); test: MIC; type: cell-based; details: 2497 isolates
# Kl. pneumoniae = test: Sensitivity of CAP pathogens with/without antibiotic pretreatment; type: cell-based, Klebsiella pneumoniae
# S. pneumoniae [6] = test: E-test MIC, children with URTI, Brazil; type: cell-based, Streptococcus pneumoniae; details: for intermediate (I) / resistant (R) / susceptible (S): 137 isolates; for MIC90: Streptococcus pneumoniae
# Other Enterobacteriacae = test: Sensitivity of CAP pathogens with/without antibiotic pretreatment; type: cell-based, Enterobacteriaceae
# Enterococcus sp = test: as above; type: cell-based
# S. -pneumoniae = test: as above; type: cell-based, Streptococcus pneumoniae
# S. pneumoniae [7] = test: Broth microdilution; type: cell-based, Streptococcus pneumoniae; details: for %Sus: NCCLS breakpoints (Amox/Clav 2/1 mcg/mL); for MIC90: Streptococcus pneumoniae
# Staph. coaq (−) = test: Sensitivity of CAP pathogens with/without antibiotic pretreatment; type: cell-based, coagulase-negative Staphylococcus
# PRSP = test: Broth microdilution; type: cell-based, Streptococcus pneumoniae; details: for %Sus: NCCLS breakpoints (Amox/Clav 2/1 mcg/mL); for MIC90: Streptococcus pneumoniae, PRSP
# S. aureus = test: Sensitivity of CAP pathogens with/without antibiotic pretreatment; type: cell-based, Staphylococcus aureus; details: after pretreatment, Abs. 4
# S. pneumoniae [8] = test: Broth microdilution; type: cell-based, Streptococcus pneumoniae; details: 275 isolates
# [9] = system: viridans group streptococci (VgS) and Streptococcus bovis; test: Broth microdilution and disk diffusion; type: cell-based; details: nine species
# [10] = system: ‘wild type’ Staphylococcus epidermidis skin isolates; test: NCCLS disk diffusion; type: cell-based; details: 52 isolates
# S.pneumoniae = test: Italian survey of severe infections 2003, MIC; type: cell-based, Streptococcus pneumoniae
# [11] = system: Streptococcus pneumoniae (SPN); test: MIC; type: cell-based; details: 8378 isolates
# [12] = system: foreign body infection Staphylococcus epidermidis strains; test: NCCLS disk diffusion; type: cell-based; details: 86 strains
# S. pneumoniae [13] = type: cell-based, Streptococcus pneumoniae
# F. necrophorum = test: E-test, 13 clinical isolates; type: cell-based, Fusobacterium necrophorum
# Streptococcus pneumoniae [14] = test: BSAC agar dilution, lower respiratory isolates UK and Ireland; type: cell-based
# S. pneumoniae [15] = test: MIC of invasive strains, Saint George Hospital 2001–2004; type: cell-based, Streptococcus pneumoniae
# S. pneumoniae (SPN) = test: SENTRY Brazil, NCCLS broth microdilution; type: cell-based, Streptococcus pneumoniae
# S. pneumoniae [16] = test: Susceptibility of bacteraemia isolates of children, Taiwan; type: cell-based, Streptococcus pneumoniae; details: 79 isolates
# S. pneumoniae [17] = test: PROTEKT Italy, NCCLS microdilution; type: cell-based, Streptococcus pneumoniae
# [18] = system: viridans group streptococci (VGS); test: MIC; type: cell-based
# Streptococcus pneumoniae [19] = test: Susceptibility testing; type: cell-based; details: 99 isolates tested
# S. pneumoniae (Sp) = test: Broth microdilution, point prevalence study Spain; type: cell-based, Streptococcus pneumoniae; details: 360 isolates, February 2004; penicillin I+R
# [20] = system: Haemophilus influenzae (HI); test: MIC; type: cell-based; details: 7489 isolates
smiles,measurement,setting,value
CC[C@H]1OC(=O)[C@H](C)[C@@H](O[C@H]2C[C@@](C)(OC)[C@@H](O)[C@H](C)O2)[C@H](C)[C@@H](O[C@@H]2O[C@H](C)C[C@H](N(C)C)[C@H]2O)[C@](C)(O)C[C@@H](C)CN(C)[C@H](C)[C@@H](O)[C@]1(C)O [azithromycin],MIC90,[1],0.5 ig/ml
same,% of sensitive strains,"H. influenzae; after pretreatment, Abs. 10",100.0%
same,% of sensitive strains,"H. influenzae; without pretreatment, Abs. 26",100.0%
same,MIC90,H.influenzae,2 µg/mL
same,%Sus,H.influenzae; NCCLS,99.1%
same,%Sus,ERSP,0.3%
same,MIC90,ERSP,> 32 µg/mL
same,patients receiving prophylaxis who were colonized,P. jirovecii,17.2%
same,% of sensitive strains,Other Haemophilus sp.,100.0%
same,% of sensitive strains,"E. coli; after pretreatment, Abs. 1",0.0%
same,% of sensitive strains,"E. coli; without pretreatment, Abs. 5","0,0%"
same,"sensitivity, total strains",[2]; higher severity group (Fine scores >70),60.0%
same,"sensitivity, total strains",[2]; lower severity group (Fine scores <70),73.6%
same,% of sensitive strains,"[3]; after pretreatment, Abs. 0",0.0%
same,% of sensitive strains,"[3]; without pretreatment, Abs. 1","0,0%"
same,% of sensitive strains,P. aeruginosa; after pretreatment,0.0%
same,% of sensitive strains,P. aeruginosa; without pretreatment,"0,0%"
same,% of sensitive strains,S. pyogenes; after pretreatment,100.0%
same,% of sensitive strains,S. pyogenes; without pretreatment,"100,0%"
same,% of sensitive strains,[4],66.7%
same,MIC,N.gonorrhoeae; strain 76mu6,0.25 µg/mL
same,MIC,N.gonorrhoeae; strain 76mu10,0.25 µg/mL
same,MIC90,[5],0.25 ig/ml
same,% of sensitive strains,"Kl. pneumoniae; after pretreatment, Abs. 5",0.0%
same,% of sensitive strains,"Kl. pneumoniae; without pretreatment, Abs. 4","0,0%"
same,intermediate (I),S. pneumoniae [6],1.5%
same,resistant (R),S. pneumoniae [6],8%
same,susceptible (S),S. pneumoniae [6],90.5%
same,MIC90,S. pneumoniae [6],4 µg/mL
same,% of sensitive strains,"Other Enterobacteriacae; after pretreatment, Abs. 5",0.0%
same,% of sensitive strains,"Other Enterobacteriacae; without pretreatment, Abs. 2","0,0%"
same,% of sensitive strains,"Enterococcus sp; after pretreatment, Abs. 0",0.0%
same,% of sensitive strains,"Enterococcus sp; without pretreatment, Abs. 1","0,0%"
same,% of sensitive strains,"S. -pneumoniae; after antibiotic pretreatment, Abs. 3",100.0%
same,% of sensitive strains,"S. -pneumoniae; without antibiotic pretreatment, Abs. 13","100,0%"
same,%Sus,S. pneumoniae [7],71.4%
same,MIC90,S. pneumoniae [7],> 32 µg/mL
same,% of sensitive strains,"Staph. coaq (−); after pretreatment, Abs. 2",50.0%
same,% of sensitive strains,"Staph. coaq (−); without pretreatment, Abs. 4",75.0%
same,%Sus,PRSP,23.0%
same,MIC90,PRSP,> 32 µg/mL
same,% of sensitive strains,S. aureus,75.0%
CC1(C)S[C@@H]2[C@H](NC(=O)Cc3ccccc3)C(=O)N2[C@H]1C(=O)O [penicillin],MIC90,[1],0.03 ig/ml
same,MIC90,H.influenzae,> 16 µg/mL
same,%Sus,ERSP,18.6%
same,MIC90,ERSP,4 µg/mL
same,Susceptibility,S. pneumoniae [8],83.6%
same,"% S, range between species",[9],65.5–98.1%
same,% resistant,[10],46.2%
same,resistance,S.pneumoniae,20.0%
same,MIC90,[11],1 ig/ml
same,% resistant,[12],More than 30%
same,intermediate susceptible,S. pneumoniae [13],30%
same,MIC range,F. necrophorum,0.004 to 256 µg/mL
same,MIC50,F. necrophorum; Fusobacterium necrophorum,0.016 µg/mL
same,MIC90,F. necrophorum; Fusobacterium necrophorum,> 32 µg/mL
same,"resistance (PEN-NS >0.06, TET-R >1, ERY-R >0.5, CIP-R >2 mg/L)","Streptococcus pneumoniae [14]; Ireland 1999–2000, N 66",40.9%
same,resistance (same cut-offs),"Streptococcus pneumoniae [14]; Ireland 2000–2001, N 59",42.4%
same,resistance (same cut-offs),"Streptococcus pneumoniae [14]; Ireland 2001–2002, N 68",36.8%
same,resistance (same cut-offs),"Streptococcus pneumoniae [14]; Ireland 2002–2003, N 89",24.7%
same,resistance (same cut-offs),"Streptococcus pneumoniae [14]; Ireland 2003–2004, N 76",14.5%
same,resistance (same cut-offs),"Streptococcus pneumoniae [14]; UK 1999–2000, N 595",7.4%
same,resistance (same cut-offs),"Streptococcus pneumoniae [14]; UK 2000–2001, N 608",7.1%
same,resistance (same cut-offs),"Streptococcus pneumoniae [14]; UK 2001–2002, N 631",4.6%
same,resistance (same cut-offs),"Streptococcus pneumoniae [14]; UK 2002–2003, N 683",6.4%
same,resistance (same cut-offs),"Streptococcus pneumoniae [14]; UK 2003–2004, N 709",5.9%
same,% S,S. pneumoniae [15],46%
same,%R,S. pneumoniae [15],54%
same,% R (> 2 mg/L) to PEN,S. pneumoniae (SPN); 1998,3%
same,% S,S. pneumoniae (SPN); 1998,84%
same,% R (> 2 mg/L) to PEN,S. pneumoniae (SPN); 1999,6%
same,% S,S. pneumoniae (SPN); 1999,83%
same,% R (> 2 mg/L) to PEN,S. pneumoniae (SPN); 2000,5%
same,% S,S. pneumoniae (SPN); 2000,75%
same,% R (> 2 mg/L) to PEN,S. pneumoniae (SPN); 2001,8%
same,% S,S. pneumoniae (SPN); 2001,82%
same,% R (> 2 mg/L) to PEN,S. pneumoniae (SPN); 2002,8%
same,% S,S. pneumoniae (SPN); 2002,78%
same,% R (> 2 mg/L) to PEN,S. pneumoniae (SPN); 2003,10%
same,% S,S. pneumoniae (SPN); 2003,72%
same,nonsusceptible isolates (MIC > 0.1 μg/mL),S. pneumoniae [16],82%
same,MIC,N.gonorrhoeae; strain 76mu6,16 µg/mL
same,MIC,N.gonorrhoeae; strain 76mu10,16 µg/mL
same,MIC,N.gonorrhoeae; strain 92mu6,0.5 µg/mL
same,MIC,N.gonorrhoeae; strain 92mu13,0.5 µg/mL
same,MIC90,[5],8 ig/ml
same,total resistance,S. pneumoniae [17]; year 1: 2002,23.7%
same,total resistance,S. pneumoniae [17]; year 2: 2003,23.4%
same,intermediate (I),S. pneumoniae [6],23.4%
same,resistant (R),S. pneumoniae [6],10.2%
same,susceptible (S),S. pneumoniae [6],66.4%
same,MIC90,S. pneumoniae [6],1.5 µg/mL
same,%Sus,S. pneumoniae [7],60.6%
same,MIC90,S. pneumoniae [7],2 µg/mL
same,MIC50,[18],0.06 µg/mL
same,MIC90,[18],0.5 µg/mL
same,MIC range of isolates with reduced susceptibility,[18],0.25 to 4 µg/mL
same,isolates with reduced susceptibility,[18]; 107 strains,18.7%
same,resistant isolates,Streptococcus pneumoniae [19],14.1%
same,resistance,S. pneumoniae (Sp),42%
same,%Sus,PRSP,0.0%
same,MIC90,PRSP,4 µg/mL
same,MIC90,[20],8 ig/ml
